# Laboratory results from US12077503B2, “Substituted cyclic amides and their use as herbicides” (FMC CORPORATION, priority 2015, dated 2024).
# Legend:
# Format in all cases: in vivo
# [1] = system: barnyardgrass (Echinochloa crus-galli); test: Test A postemergence; details: Echinochloa crus-galli, post-emergence, 240 h, 125 g ai/ha, postemergence, visual injury rating after approximately 10 d; read-out: Barnyardgrass plant response rating (0 to 100 scale, 0 no effect, 100 complete control)
# Method in brief: (§1)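 Ratings of 0 (no effect) to 100 (complete control) come from visual comparison with untreated controls roughly 10 d after treatment. Test chemicals, formulated in a non-phytotoxic solvent mixture with surfactant, were applied either as a preemergence directed soil spray on seeded soil or postemergence to one- to two-leaf plants 2 to 10 cm tall.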
# corn (Zea mays) = test: Test A postemergence; details: Zea mays, post-emergence, 240 h, 125 g ai/ha, postemergence, visual injury rating after approximately 10 d; read-out: Corn plant response rating (0 to 100 scale, 0 no effect, 100 complete control)
# Method in brief: as §1
# [2] = system: Galium (catchweed bedstraw, Galium aparine); test: Test A postemergence; details: Galium, post-emergence, 240 h, 125 g ai/ha, postemergence, visual injury rating after approximately 10 d; read-out: Galium plant response rating (0 to 100 scale, 0 no effect, 100 complete control)
# Method in brief: as §1
# Kochia (Kochia scoparia) [3] = test: Test A postemergence; details: Bassia scoparia, post-emergence, 240 h, 125 g ai/ha, postemergence, visual injury rating after approximately 10 d; read-out: Kochia plant response rating (0 to 100 scale, 0 no effect, 100 complete control)
# Method in brief: as §1
# [4] = system: pigweed (Amaranthus retroflexus); test: Test A postemergence; details: Amaranthus retroflexus, post-emergence, 240 h, 125 g ai/ha, postemergence, visual injury rating after approximately 10 d; read-out: Pigweed plant response rating (0 to 100 scale, 0 no effect, 100 complete control)
# Method in brief: as §1
# [5] = system: barnyardgrass (Echinochloa crus-galli); test: Test A preemergence; details: Echinochloa crus-galli, pre-emergence, 240 h; for pest or weed control at 125 g/ha: 125 g ai/ha, preemergence, 0 to 100 scale where 0 is no effect and 100 is complete control, read-out: Barnyardgrass plant response rating; for pest or weed control at 500 g/ha: 500 g ai/ha, Preemergence, visual injury vs untreated controls after approximately 10 d, read-out: Barnyardgrass plant response rating (0 to 100 scale where 0 is no effect and 100 is complete control)
# Method in brief: as §1
# [6] = system: ragweed (common ragweed, Ambrosia elatior); test: Test A preemergence; details: Ambrosia artemisiifolia, pre-emergence, 240 h; for pest or weed control at 125 g/ha: 125 g ai/ha, preemergence, 0 to 100 scale where 0 is no effect and 100 is complete control, read-out: Ragweed plant response rating; for pest or weed control at 500 g/ha: 500 g ai/ha, Preemergence, visual injury vs untreated controls after approximately 10 d, read-out: Ragweed plant response rating (0 to 100 scale where 0 is no effect and 100 is complete control)
# Method in brief: as §1
# Kochia (Kochia scoparia) [7] = test: Test A preemergence; details: Bassia scoparia, pre-emergence, 240 h; for pest or weed control at 125 g/ha: 125 g ai/ha, preemergence, 0 to 100 scale where 0 is no effect and 100 is complete control, read-out: Kochia plant response rating; for pest or weed control at 500 g/ha: 500 g ai/ha, Preemergence, visual injury vs untreated controls after approximately 10 d, read-out: Kochia plant response rating (0 to 100 scale where 0 is no effect and 100 is complete control)
# Method in brief: as §1
# [8] = system: giant foxtail (Setaria faberii); test: Test A preemergence; details: Setaria faberi, pre-emergence, 240 h; for pest or weed control at 125 g/ha: 125 g ai/ha, preemergence, 0 to 100 scale where 0 is no effect and 100 is complete control, read-out: Foxtail, Giant plant response rating; for pest or weed control at 500 g/ha: 500 g ai/ha, Preemergence, visual injury vs untreated controls after approximately 10 d, read-out: Foxtail, Giant plant response rating (0 to 100 scale where 0 is no effect and 100 is complete control)
# Method in brief: as §1
# [9] = system: ryegrass, Italian (Italian ryegrass, Lolium multiflorum); test: Test A preemergence; details: Lolium multiflorum, pre-emergence, 240 h; for pest or weed control at 125 g/ha: 125 g ai/ha, preemergence, 0 to 100 scale where 0 is no effect and 100 is complete control, read-out: Ryegrass, Italian plant response rating; for pest or weed control at 500 g/ha: 500 g ai/ha, Preemergence, visual injury vs untreated controls after approximately 10 d, read-out: Ryegrass, Italian plant response rating (0 to 100 scale where 0 is no effect and 100 is complete control)
# Method in brief: as §1
# [10] = system: pigweed (Amaranthus retroflexus); test: Test A preemergence; details: Amaranthus retroflexus, pre-emergence, 240 h; for pest or weed control at 125 g/ha: 125 g ai/ha, preemergence, 0 to 100 scale where 0 is no effect and 100 is complete control, read-out: Pigweed plant response rating; for pest or weed control at 500 g/ha: 500 g ai/ha, Preemergence, visual injury vs untreated controls after approximately 10 d, read-out: Pigweed plant response rating (0 to 100 scale where 0 is no effect and 100 is complete control)
# [11] = system: barnyardgrass (Echinochloa crus-galli); test: Test B flooded paddy test; details: Echinochloa crus-galli, Flood, 250 g ai/ha; scale of 0 to 100 where 0 is no effect and 100 is complete control; read-out: Barnyardgrass plant response rating
# Method in brief: (§2)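 Response scored visually against untreated controls, 0 = no effect and 100 = complete control, 13–15 d after treatment in the greenhouse. Compounds added to paddy water held 3 cm above soil surface. Treatment given at 2-leaf stage.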
# [12] = system: sedge, umbrella (small-flower umbrella sedge, Cyperus difformis); test: Test B flooded paddy test; details: Cyperus difformis, Flood, 250 g ai/ha; scale of 0 to 100 where 0 is no effect and 100 is complete control; read-out: Sedge, Umbrella plant response rating
# Method in brief: as §2
# rice (Oryra sativa) = test: Test B flooded paddy test; details: Oryza sativa, Flood, 250 g ai/ha; scale of 0 to 100 where 0 is no effect and 100 is complete control; read-out: Rice plant response rating
# Method in brief: as §2
# [13] = system: ducksalad (Heteranthera limosa); test: Test B flooded paddy test; details: Heteranthera limosa, Flood, 250 g ai/ha; scale of 0 to 100 where 0 is no effect and 100 is complete control; read-out: Ducksalad plant response rating
# Method in brief: as §2
Structure (SMILES),pest or weed control at 125 g/ha [1] [%],plant injury at 125 g/ha (corn (Zea mays)) [%],pest or weed control at 125 g/ha [2] [%],pest or weed control at 125 g/ha (Kochia (Kochia scoparia) [3]) [%],pest or weed control at 125 g/ha [4] [%],pest or weed control at 125 g/ha [5] [%],pest or weed control at 500 g/ha [5] [%],pest or weed control at 125 g/ha [6] [%],pest or weed control at 500 g/ha [6] [%],pest or weed control at 125 g/ha (Kochia (Kochia scoparia) [7]) [%],pest or weed control at 500 g/ha (Kochia (Kochia scoparia) [7]) [%],pest or weed control at 125 g/ha [8] [%],pest or weed control at 500 g/ha [8] [%],pest or weed control at 125 g/ha [9] [%],pest or weed control at 500 g/ha [9] [%],pest or weed control at 125 g/ha [10] [%],pest or weed control at 500 g/ha [10] [%],pest or weed control at 250 g/ha [11] [%],pest or weed control at 250 g/ha [12] [%],pest or weed control at 250 g/ha (rice (Oryra sativa)) [%],further results
CN1C[C@H](c2cccc(C3CC3)c2)[C@@H](C(=O)Nc2ccccc2S(C)(=O)=O)C1=O [Compound 817],90,50,40,0,0,90,90,20,50,50,70,90,90,20,40,0,80,60,0,0,pest or weed control at 250 g/ha [13]: 90%
CN1C[C@H](c2cccc(C3CC3)c2)[C@@H](C(=O)Nc2ccc(F)cc2F)C1=O [Compound 818],90,40,50,40,20,90,100,0,0,70,80,90,100,60,90,20,60,55,0,0,pest or weed control at 250 g/ha [13]: 80%
CC(C)c1cccc([C@H]2CN(C)C(=O)[C@@H]2C(=O)Nc2ccccc2F)c1 [Compound 819],100,40,50,30,30,90,100,0,20,70,100,100,100,80,100,30,30,65,0,0,pest or weed control at 250 g/ha [13]: 100%
CN1C[C@H](c2cccc(F)c2)[C@@H](C(=O)Nc2ccccc2C(F)(F)F)C1=O [Compound 823],90,0,30,20,20,90,100,0,40,0,70,100,100,30,60,0,50,40,0,0,pest or weed control at 250 g/ha [13]: 90%
N#Cc1cccc(NC(=O)[C@H]2C(=O)NC[C@@H]2c2cccc(C(F)(F)F)c2)c1F [Compound 829],80,30,30,0,0,90,90,30,70,60,90,90,90,20,40,0,60,55,0,0,pest or weed control at 250 g/ha [13]: 70%
CS(=O)(=O)c1ccccc1NC(=O)[C@H]1C(=O)NC[C@@H]1c1cc(F)c(C(F)(F)F)c(F)c1 [Compound 839],60,30,80,70,80,80,90,80,90,90,90,90,90,0,40,90,90,0,0,0,pest or weed control at 250 g/ha [13]: 70%
